This note sets out measurements from ChEMBL document CHEMBL1152828, “Rare dipeptide and urea derivatives from roots of Moringa oleifera as potential anti-inflammatory and antinociceptive agents” (Eur J Med Chem, 2009).

Assay [1] relates to Blood. In words: Inhibition of LPS-induced TNFalpha production in rat whole blood at 12.5 to 50 uM by ELISA. Type of assay: functional, tissue-based.
For assay [2], the system named is Blood. In words: Inhibition of LPS-induced IL2 production in rat whole blood at 12.5 to 50 uM by ELISA. Type of assay: functional, tissue-based.
In assay [3] the test system is Blood. In words: Inhibition of LPS-induced IL6 production in rat whole blood at 12.5 to 50 uM by ELISA. The format is functional, tissue-based.
For the next assay, the system named is Mus musculus. In words: Analgesic activity in intracerebrally dosed mouse assessed as increase in time course of latency for thermal stimulation by hotplate test. The format is functional, organism-based.
Assay [4] concerns the target Transient receptor potential cation channel subfamily V member 1 (Rattus norvegicus, UniProt O35433). In words: Antagonist activity at TRPV1 in rat DRG neuron assessed as inhibition of calcium uptake. Type of assay: functional.

Each structure is given as a SMILES string. pIC50: −log10 of the molar value. Calls of active or inactive are those of the source. The rule behind the calls is not given here.

Transient receptor potential cation channel subfamily V member 1, sequence (O35433 whole entry): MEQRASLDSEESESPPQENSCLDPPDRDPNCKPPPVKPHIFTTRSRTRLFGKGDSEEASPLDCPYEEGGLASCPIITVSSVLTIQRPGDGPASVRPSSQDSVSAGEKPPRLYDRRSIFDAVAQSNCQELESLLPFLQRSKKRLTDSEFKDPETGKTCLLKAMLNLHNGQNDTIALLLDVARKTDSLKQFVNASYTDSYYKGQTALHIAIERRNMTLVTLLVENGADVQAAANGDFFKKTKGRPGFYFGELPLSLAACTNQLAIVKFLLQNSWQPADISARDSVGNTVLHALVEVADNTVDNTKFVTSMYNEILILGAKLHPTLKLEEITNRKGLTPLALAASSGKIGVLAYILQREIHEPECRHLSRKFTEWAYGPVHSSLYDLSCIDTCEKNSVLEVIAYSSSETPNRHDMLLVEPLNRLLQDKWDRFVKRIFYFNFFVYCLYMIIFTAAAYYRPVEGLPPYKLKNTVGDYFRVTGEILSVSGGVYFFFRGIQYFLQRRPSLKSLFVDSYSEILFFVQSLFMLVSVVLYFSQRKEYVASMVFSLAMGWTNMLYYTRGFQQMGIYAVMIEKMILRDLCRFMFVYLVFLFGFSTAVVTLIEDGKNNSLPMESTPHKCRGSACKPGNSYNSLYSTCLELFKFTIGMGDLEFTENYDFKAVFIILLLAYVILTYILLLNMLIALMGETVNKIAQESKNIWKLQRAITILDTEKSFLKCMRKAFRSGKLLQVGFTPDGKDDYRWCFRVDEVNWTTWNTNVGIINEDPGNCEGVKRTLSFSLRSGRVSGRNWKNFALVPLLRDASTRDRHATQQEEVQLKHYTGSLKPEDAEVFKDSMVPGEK

Take `CC(=O)OCC(Cc1ccccc1)NC(=O)C(Cc1ccccc1)NC(=O)c1ccccc1` (configuration not stated): the result in the assay with Blood [1], with Blood [2] and with Blood [3] was Active. In addition, the Activity result in the assay with Mus musculus was “Dose-dependent effect”.
Regarding `O=C(NCc1ccccc1)NCc1ccccc1`, the pIC50 in assay [4] was 8.00. Besides, the result in the assay on Blood [2] was Active. The Activity entry in the assay with Mus musculus is “Dose-dependent effect”.
